Test results taken from patent US20180303853A1, “COMPOSITIONS AND METHODS FOR TREATING BACTERIAL INFECTIONS USING CEFTAROLINE” (priority 2017, published 2018).

Assays:
[1] = Example 4 CAP study, safety
Description: (§2) Study-Drug: Ceftaroline fosamil was administered in two consecutive 300 mg intravenous (IV) infusions over 30 minutes, every 12 hours (q12h). The 600-mg dose of ceftaroline fosamil infused over 60 minutes was split into two infusions in order to maintain the blind. For subjects with moderate renal impairment (30 ml/min<CrCl≤50 ml/min), as estimated by the Cockroft-Gault formula, unblinded pharmacy staff or unblinded study staff could adjust the dose of ceftaroline fosamil to two consecutive 200 mg infusions and readjust dose to two 300 mg infusions when renal function improved (CrCl>50 mL/min). The duration of treatment was between 5 to 7 days.
(§3) All subjects who received any amount of study drug were included in the safety analysis. Safety measures included monitoring for adverse events (AE) up to TOC and serious adverse events (SAE) through LFU; recording vital signs, physical examination, electrocardiogram (ECG), and clinical laboratory findings (clinical chemistry, hematology, and urinalysis), at prespecified times throughout the study.

clinical = conditions: human, in vivo
[2] = human, in vivo
MDRSP [3] = experiment: Example 4 CAP study, outcome by baseline pathogen; assay type: in vivo, S. pneumoniae
Text: (§1) Per-pathogen clinical cure rate and favorable microbiological outcome rate at TOC in the mMITTE and ME Populations;

[4] = human, in vivo; remark: listed apart in the source
Description: as §2, §3

human plasma protein = assay type: in vitro ADME
[5] = tested on: CYP1A2, CYP2B6, CYP2C8, CYP2C9, CYP2CI9, or CYP3A4/5; experiment: CYP induction in human hepatocytes; assay type: in vitro ADME
[6] = tested on: complicated skin and skin structure infections (cSSSI); experiment: Two Phase 3 studies in cSSSI, clinical cure at TOC; assay type: in vivo, human; conditions: co-primary CE and MITT populations
Description: A total of 1396 adults with clinically documented complicated skin and skin structure infections (cSSSI) were enrolled in two randomized, multi-center, multinational, double-blind, studies comparing 600 mg ceftaroline fosamil administered intravenously over 1 hour every 12 hours to vancomycin plus aztreonam [1 g vancomycin administered intravenously over 1 hour followed by 1 g aztreonam administered intravenously over 1 hour every 12 hours]. Patients with cSSSI (deep/extensive cellulitis, a major abscess, a wound infection [surgical or traumatic], infected insect bites, burns or ulcers, lower extremity infection in patients with diabetes mellitus or peripheral vascular disease), were enrolled in the studies. Treatment duration was […] days. A switch to oral therapy was not allowed. The Modified Intent-to-Treat (MITT) population included all patients who received any amount of study drug according to their randomized treatment group.
The primary efficacy endpoint was clinical response at the Test of Cure (TOC) visit in the co-primary CE and MITT populations (Table 2). […] In a subgroup analysis (CE population), the comparative clinical cure rates between the ceftaroline group and the vancomycin plus aztreonam group were not affected by age, gender, race, ethnicity, or weight.

[7] = human, microsomes
[8] = tested on: Community-Acquired Bacterial Pneumonia (CABP); experiment: Two Phase 3 studies in CABP, clinical cure at TOC (single and integrated/combined); assay type: in vivo, human; conditions: TOC; for Combined clinical cure rate: combined data of the two CAP studies; for Weighted treatment difference (95% CI), ceftaroline versus ceftriaxone: combined data
Description: In both treatment groups of CABP Study 1, two doses of oral clarithromycin (500 mg q12 h), were administered as adjunctive therapy starting on Study Day 1. No adjunctive macrolide therapy was used in CABP Study 2. Patients with new or progressive pulmonary infiltrate(s) on chest radiography and clinical signs and symptoms consistent with CABP with the need for hospitalization and IV therapy were enrolled in the studies. Treatment duration was 5 to 7 days. A switch to oral therapy was not allowed. The Modified Intent-to-Treat Efficacy (MITTE) population, included all patients who received any amount of study drug according to their randomized, treatment group and were in PORT (Pneumonia Outcomes Research Team) Risk Class III or IV.
The primary efficacy endpoint was the clinical response at the Test of Cure (TOC) visit in the co-primary Ce and MITTE populations (Table 4).

[9] = tested on: CYP1A1, CYP1A2, CYP2A6, CYP2B6, CYP2C8, CYP2C9, CYP2C19, CYP2D6, CYP2E1 and CYP3A4; experiment: Cytochrome P450 inhibition in human liver microsomes; assay type: in vitro ADME; conditions: microsomes
MDRSP [10] = experiment: Example 5 CAP study, outcome by baseline pathogen; assay type: in vivo, S. pneumoniae
Text: as §1

H. parainfluenzae = experiment: Example 5 CAP study, outcome by baseline pathogen; assay type: in vivo
Text: as §1

H. influenzae = experiment: Example 5 CAP study, outcome by baseline pathogen; assay type: in vivo
Text: as §1

E. coli = experiment: Example 5 CAP study, outcome by baseline pathogen; assay type: in vivo
Text: as §1

S. pneumoniae = experiment: Example 5 CAP study, outcome by baseline pathogen; assay type: in vivo
Text: as §1

S. aureus = experiment: Example 5 CAP study, outcome by baseline pathogen; assay type: in vivo
Text: as §1

[11] = tested on: community-acquired pneumonia (CAP); experiment: Example 4 Phase 3 study, ceftaroline vs ceftriaxone in CAP, efficacy; assay type: in vivo, human
Text: The secondary objectives of the study were to evaluate the following: clinical response at end-of-therapy (EOT); the microbiological favorable outcome rate at TOC; the overall (clinical and radiographic) success rate at TOC; the clinical and microbiological response by pathogen at TOC; clinical relapse at late follow-up (LFU); microbiological reinfection/recurrence at LFU; and safety.
The following criteria were used for evaluation: The primary efficacy outcome measures were the pet-subject clinical cure rate at test-of-cure (TOC) in the CE and MITTE Populations Subjects were considered clinically cured at TOC if they had total resolution of all signs and symptoms of the baseline infection, or improvement of the infection such that no further antimicrobial therapy was necessary.
Non-inferiority was concluded if the lower limit of the 95% CI was higher than −10%.

CCO/N=C(\C(=O)N[C@@H]1C(=O)N2C(C(=O)[O-])=C(Sc3nc(-c4cc[n+](C)cc4)cs3)CS[C@H]12)c1nsc(N)n1 [Ceftaroline, ceftaroline]
hemolytic anemia [1]: No evidence of hemolytic anemia
incidence of deaths [1]: 2.9%
clearance (clinical; CL/Fm): 160 mL/min
half-life (clinical; mean plasma terminal elimination half-life): ~2.5 h
half-life (clinical; t1/2): 1.6 h
CL/Fm [2]: 9.60 (1.40) L/h
dose dependence of Cmax and AUC [2]: increased approximately in proportion to increases in dose
t1/2 [2]: 2.66 (0.40) h
Favorable Microbiological Outcome at TOC by Baseline Pathogen (MDRSP [3]; Example 4, ME): 2/2 (100.0)
Clinical Cure Rate at the TOC Visit by Baseline Pathogen (MDRSP [3]; Example 4, ME Population): 2/2 (100.0)
Adverse event: COPD [4]: 8 (2.5) %
Adverse event: Diarrhea [4]: 12 (3.8) %
Adverse event: Head ache [4]: 11 (3.5) %
Adverse event: Pleural effusion [4]: 4 (1.3) %
Adverse event: Pneumonia [4]: 8 (2.5) %
study-drug-related TEAE: alanine aminotransferase increased [4]: 0.3%
study-drug-related TEAE: blood creatinine phosphokinase increased [4]: 1.3%
study-drug-related TEAE: heartache [4]: 0.6%
subjects with any study-drug-related TEAEs [4]: 12.4%
binding to human plasma protein (human plasma protein): approximately 20%
induction of CYP isoenzymes [5]: not inducers
clinical response at TOC, comparison with comparator [6]: non-inferior to vancomycin plus aztreonam
metabolic turnover [7]: < 12%
Combined clinical cure rate ([8]; CE): 387/459 (84.3) %
Combined clinical cure rate ([8]; ME): 131/154 (85.1) %
Combined clinical cure rate ([8]; MITTE): 479/580 (82.6) %
Combined clinical cure rate ([8]; mMITTE): 138/165 (83.6) %
Weighted treatment difference (95% CI), ceftaroline versus ceftriaxone ([8]; CE): 6.7 (1.6, 11.8) %
Weighted treatment difference (95% CI), ceftaroline versus ceftriaxone ([8]; CE, listed as ceftaroline): 6.7%
Weighted treatment difference (95% CI), ceftaroline versus ceftriaxone ([8]; ME): 9.7 (0.7, 18.8) %
Weighted treatment difference (95% CI), ceftaroline versus ceftriaxone ([8]; ME, listed as ceftaroline): 9.7%
Weighted treatment difference (95% CI), ceftaroline versus ceftriaxone ([8]; MITTE): 6.0 (1.4, 10.7) %
Weighted treatment difference (95% CI), ceftaroline versus ceftriaxone ([8]; mMITTE): 8.7 (−0.0, 17.4) %
Weighted treatment difference (95% CI), ceftaroline versus ceftriaxone ([8]; mMITTE, listed as ceftaroline): 8.7%
inhibition of major cytochrome P450 isoenzymes [9]: neither ceftaroline fosamil nor ceftaroline inhibits
Favorable Microbiological Outcome at TOC by Baseline Pathogen (MDRSP [10]; Example 5, ME): 2/2 (100.0)
Clinical Cure Rate at the TOC Visit by Baseline Pathogen (MDRSP [10]; Example 5, ME Population): 2/2 (100.0)
Favorable Microbiological Outcome at TOC by Baseline Pathogen (H. parainfluenzae; Example 5, ME): 7/7 (100.0)
Clinical Cure Rate at the TOC Visit by Baseline Pathogen (H. parainfluenzae; Example 5, ME Population): 7/7 (100.0)
Favorable Microbiological Outcome at TOC by Baseline Pathogen (H. influenzae; Example 5, ME): 2/3 (66.7)
Clinical Cure Rate at the TOC Visit by Baseline Pathogen (H. influenzae; Example 5, ME Population): 2/3 (66.7)
Favorable Microbiological Outcome at TOC by Baseline Pathogen (E. coli; Example 5, ME): 8/8 (100.0)
Clinical Cure Rate at the TOC Visit by Baseline Pathogen (E. coli; Example 5, ME Population): 8/8 (100.0)
Favorable Microbiological Outcome at TOC by Baseline Pathogen (S. pneumoniae; Example 5, ME): 21/24 (87.5)
Clinical Cure Rate at the TOC Visit by Baseline Pathogen (S. pneumoniae; Example 5, ME Population): 21/24 (87.5)
Favorable Microbiological Outcome at TOC by Baseline Pathogen (S. aureus; Example 5, ME): 8/10 (80.0)
Clinical Cure Rate at the TOC Visit by Baseline Pathogen (S. aureus; Example 5, ME Population): 8/10 (80.0)
Difference (ceftaroline minus ceftriaxone), Clinical Cure Rate at EOT ([11]; Example 4, CE): 6.0%
Difference (ceftaroline minus ceftriaxone), Clinical Success at TOC ([11]; Example 4, CE): 4.9%
Clinical Success at the TOC Visit ([11]; Example 4, CE population): 193 (82.1) %
Per-subject Clinical Cure Rate at the EOT Visit ([11]; Example 4, CE population): 202 (86.0) %
Difference (ceftaroline minus ceftriaxone), Favorable Microbiological Outcome at TOC ([11]; Example 4, ME): 1.8%
Favorable Microbiological Outcome at the TOC Visit ([11]; Example 4, ME population): 72 (84.7) %
Difference (ceftaroline minus ceftriaxone), Clinical Cure Rate at EOT ([11]; Example 4, MITTE): 7.4%
Difference (ceftaroline minus ceftriaxone), Clinical Success at TOC ([11]; Example 4, MITTE): 5.9%
Clinical Success at the TOC Visit ([11]; Example 4, MITTE population): 235 (81.3) %
Per-subject Clinical Cure Rate at the EOT Visit ([11]; Example 4, MITTE population): 249 (86.2) %
Difference (ceftaroline minus ceftriaxone), Favorable Microbiological Outcome at TOC ([11]; Example 4, mMITTE): 0.4%
Favorable Microbiological Outcome at the TOC Visit ([11]; Example 4, mMITTE population): 74 (82.2) %
